In patent US7067520B2, “Preventive or therapeutic medicines for diabetes containing fused-heterocyclic compounds or their salts” (Ishihara Sangyo Kaisha, Ltd., priority 2000, dated 2006):

Compared with `CSc1nc2ccnn2c(Nc2cccc(S(=O)(=O)N(C)C)c2)c1C#N` [compound 151], `CSc1nc2ccnn2c(Nc2cccc(Cl)c2)c1C#N` [compound 162] is lower in melting point: 205 to 208 °C for the first, 161 to 162 °C for the second.

First: CCOC(=O)CNc1c(C#N)c(SC)nc2ccnn12 [compound 13]
Second: CCOC(=O)c1ccc(Nc2c(C#N)c(SC)nc3ccnn23)cc1 [compound 175]
The melting point of the first is lower: 184 to 185 °C for the first, 191 to 192 °C for the second.

First: CSc1nc2cc(C)nn2c(Cl)c1C#N [compound 185]
Second: COc1cccc(Nc2c(C#N)c(SC)nc3cc(C)nn23)c1 [compound 192]
The melting point of the first is higher: 182 to 187 °C for the first, 142 to 143 °C for the second.

First: COCSc1nc2ccnn2c(NCc2ccccc2)c1C#N [compound 107]
Second: C=CCSc1nc2ccnn2c(NCc2ccccc2)c1C#N [compound 77]
The melting point of the first is higher: 137.4 to 141.4 °C for the first, 90 to 91.5 °C for the second.

Compared with `COC(=O)c1c(SC)nc2ccnn2c1O` [compound 155], `COC(=O)c1cccc(Nc2c(C#N)c(SC)nc3ccnn23)c1` [compound 194] is lower in melting point: 192 to 194 °C for the first, 153 to 155 °C for the second.

First: CSc1nc2ccnn2c(NOCC2CCCCO2)c1C#N (stereo not shown) [compound 209]
Second: CSc1nc2ccnn2c(NOCC2OCCO2)c1C#N [compound 208]
The melting point of the first is higher: 161 °C for the first, 152 to 153 °C for the second.

First: CSc1nc2nc(SC)c(C#N)c(NCc3ccncc3)n2n1 [compound 38]
Second: CSc1nc2cc(C)nn2c(NCc2ccncc2)c1C#N [compound 188]
The melting point of the first is higher: 230 to 233 °C for the first, 190 to 191 °C for the second.

First: CSc1nc2ccnn2c(Nc2ccc(CC#N)cc2)c1C#N [compound 198]
Second: CSc1nc2ccnn2c(Nc2ccc(O)cc2)c1C#N [compound 170]
The melting point of the first is higher: 268 to 269 °C for the first, 250 to 256 °C for the second.

First: CSc1nc2ccnn2c(NCC(=O)c2ccccc2)c1C#N [compound 18]
Second: CSc1nc2ccnn2c(NCCc2ccccc2)c1C#N [compound 12]
The melting point of the first is higher: 212 to 213 °C for the first, 107 °C for the second.

First: CSc1nc2ccnn2c(Cl)c1C(=O)OCc1ccccc1 [compound 146]
Second: CSc1nc2ccnn2c(NCc2ccccc2)c1C(=O)O [compound 128]
The melting point of the first is lower: 52 to 54 °C for the first, 162.7 to 164 °C for the second.

First: CSc1nc2ccnn2c(NCc2ccc(Cl)cc2)c1C#N [compound 31]
Second: CSc1nc2ccnn2c(NCc2ccccc2Cl)c1C#N [compound 33]
The melting point of the first is higher: 167 °C for the first, 160 °C for the second.

First: CSc1nc2ccnn2c(Nc2cccc(C(=O)O)c2)c1C#N [compound 195]
Second: CSc1nc2ccnn2c(Nc2cccc(C#N)c2)c1C(=O)O [compound 134]
The melting point of the first is higher: 168 to 171 °C for the first, 162.5 to 164.5 °C for the second.

First: CSc1nc2ccnn2c(Nc2ccc(OC(F)(F)F)cc2)c1C#N [compound 167]
Second: COc1ccc(Nc2c(C#N)c(SC)nc3ccnn23)cc1 [compound 169]
The melting point of the first is higher: 243 to 244 °C for the first, 214 to 215 °C for the second.

First: CSc1nc2ccnn2c(OCc2ccccc2)c1C#N [Compound No. 51, 7-benzyloxy-5-methylthiopyrazolo[1,5-a]pyrimidine-6-carbonitrile]
Second: CSc1nc2ccnn2c(SCc2ccccc2)c1C#N [compound 183]
The melting point of the first is higher: 194 °C for the first, 138 °C for the second.

Compared with `N#Cc1c(Cc2ccccc2)nc2ccnn2c1NCc1ccncc1` [compound 90], `N#Cc1c(Cc2ccccc2)nc2ccnn2c1NCc1ccccc1` [compound 88] is lower in melting point: 195 to 198 °C for the first, 163 °C for the second.

First: CSc1nc2ccnn2c(N2CCC(C)CC2)c1C#N [compound 160]
Second: CSc1nc2cccn2c(NC2CCCCC2)c1C#N [compound 109]
The melting point of the first is higher: 118 to 120 °C for the first, 117 to 118 °C for the second.

First: COc1nc2ccnn2c(NCc2ccncc2)c1C#N [compound 153]
Second: C=CCSc1nc2ccnn2c(NCc2ccncc2)c1C#N [compound 76]
The melting point of the first is higher: 193 to 195 °C for the first, 178.8 to 179.8 °C for the second.

`N#Cc1c(SCc2ccccc2)nc2ccnn2c1NCc1ccccc1` [compound 70] and `N#Cc1c(-c2ccccc2)nc2ccnn2c1NCc1ccccc1` [compound 86] cannot be ordered by melting point: 121 to 122.2 °C for the first, 120 to 122 °C for the second.

First: CCC(CC)Sc1nc2ccnn2c(N)c1C#N [compound 113]
Second: N#Cc1c(SCc2ccccc2)nc2ccnn2c1N [compound 69]
The melting point of the first is lower: 242 to 243.8 °C for the first, 245.6 to 245.9 °C for the second.

First: N#Cc1c(SC2CCCC2)nc2ccnn2c1NCc1ccccc1 [compound 104]
Second: C#CCSc1nc2ccnn2c(NCc2ccccc2)c1C#N [compound 95]
The melting point of the first is lower: 115.8 to 116.6 °C for the first, 142.2 to 144.2 °C for the second.

First: CSc1nc2ccnn2c(N=Cc2ccccc2)c1C#N [compound 34]
Second: CSc1nc2ccnn2c(NCCOc2ccccc2)c1C#N [compound 181]
The melting point of the first is higher: 188 °C for the first, 122 °C for the second.

Compared with `CSc1nc2ccnn2c(NCc2cccs2)c1C#N` [compound 180], `CSc1nc2ccnn2c(NCc2ccco2)c1C#N` [Compound No. 78, 7-furfurylamino-5-methylthiopyrazolo[1,5-a]pyrimidine-6-carbonitrile] is lower in melting point: 142 °C for the first, 110 °C for the second.

Compared with `CSc1ccc(Nc2c(C#N)c(SC)nc3ccnn23)cc1` [compound 196], `CSc1nc2ccnn2c(Nc2ccc(S(C)(=O)=O)cc2)c1C#N` [compound 201] is higher in melting point: 190 to 191 °C for the first, 241 to 244 °C for the second.

First: CSc1nc2ccnn2c(NCc2cccc3ccccc23)c1C#N [compound 30]
Second: CSc1nc2ccnn2c(NCc2ccccc2)c1S(C)(=O)=O [compound 61]
The melting point of the first is higher: 195 °C for the first, 163 to 164 °C for the second.

Compared with `CSc1nc2nccn2c(NCc2ccccc2)c1C#N` [compound 42], `C#CCSc1nc2ccnn2c(NCc2ccncc2)c1C#N` [compound 96] is higher in melting point: 179 °C for the first, 208.5 to 208.7 °C for the second.

First: CSc1nc2ccnn2c(NCc2ccncc2)c1S(C)(=O)=O [compound 63]
Second: CSc1nc2ccnn2c(NCc2ccncc2)c1C(=O)O [compound 129]
The melting point of the first is higher: 195 to 196 °C for the first, 155 to 157 °C for the second.

With `COCSc1nc2ccnn2c(N)c1C#N` [compound 106] the melting point was 214 to 216 °C (dec.).
With `CSc1nc2ccnn2c(Nc2ccc(C(=O)O)cc2)c1C#N` [compound 176] the melting point was > 250 °C.
In the case of `CCSc1nc2ccnn2c(N)c1C#N` [compound 66], the melting point was > 240 °C.
In the case of `CSc1nc2ccnn2c(NOc2ccccc2)c1C#N` [compound 179], the melting point was > 250 °C.
With `CSc1nc2ccnn2c(N)c1C#N` [compound 41] the melting point was > 250 °C.
In the case of `C#CCSc1nc2ccnn2c(N)c1C#N` [compound 94], the melting point was 206 °C (dec.).
With `CSc1nc2ccnn2c(O)c1C#N` [compound 49, 7-hydroxy-5-methylthiopyrazolo[1,5-a]pyrimidine-6-carbonitrile] the melting point was > 250 °C.
In the case of `N#Cc1c(-c2ccccc2)nc2ccnn2c1N` [compound 85], the melting point was > 250 °C.
With `CSc1nc2ccnn2c(Nc2cccc(S(N)(=O)=O)c2)c1C#N` [compound 152] the melting point was > 280 °C.
With `CSc1nc2ccnn2c(NC(C)=O)c1C#N` [Compound No. 7] the melting point was > 280 °C.
For `CSc1nc2ccnn2c(N)c1C#N` [compound 1, 7-amino-5-methylthiopyrazolo[1,5-a]pyrimidine-6-carbonitrile], the melting point was > 240 °C.
For `CSc1nc2nc(SC)c(C#N)c(N)n2n1` [compound 35], the melting point was > 250 °C.
